In patent US20110086759A1, “CHEMICAL COMPOUNDS” (SYNGENTA CROP PROTECTION, INC., priority 2007, published 2011):

Columns and labels:
Format in all cases: in vivo
[1] = system: Echinochloa crus-galli (ECHCG); assay: Post-emergence biological efficacy, glasshouse pot test; details: 312 h
Outline: (§1)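 Pot-grown weeds were sprayed 8 days after sowing with test compound in acetone/water (50:50) with 0.5% Tween 20 at 1000 or 250 g/ha. Glasshouse at 24/16° C day/night, 14 h light, 65% humidity. Damage scored 0-100 (100 = total damage) after 13 days.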

[2] = system: Alopecurus myosuroides (ALOMY); assay: as above; details: 312 h
Outline: as §1

[3] = system: Amaranthus retoflexus (AMARE); assay: as above; details: Amaranthus retroflexus, 312 h
Outline: as §1

[4] = system: Setaria faberi (SETFA); assay: as above; details: 312 h
Outline: as §1

[5] = system: Solanum nigrum (SOLNI); assay: as above; details: 312 h
Outline: as §1

[6] = system: Ipomea hederaceae (IPOHE); assay: as above; details: Ipomoea hederacea, 312 h
Outline: as §1

[7] = system: Echinochloa crus-galli (ECHCG); assay: Pre-emergence biological efficacy, glasshouse pot test; details: 312 h
Outline: (§2)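 Visual phytotoxicity (0 no damage, 100 total damage) assessed 13 d after treatment. Soil-sown pots sprayed one day post-sowing; dose 1000 or 250 g/ha; formulation in acetone/water 50:50, 0.5% Tween 20.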

[8] = system: Alopecurus myosuroides (ALOMY); assay: as above; details: 312 h
Outline: as §2

[9] = system: Amaranthus retoflexus (AMARE); assay: as above; details: Amaranthus retroflexus, 312 h
Outline: as §2

[10] = system: Setaria faberi (SETFA); assay: as above; details: 312 h
Outline: as §2

[11] = system: Solanum nigrum (SOLNI); assay: as above; details: 312 h
Outline: as §2

[12] = system: Ipomea hederaceae (IPOHE); assay: as above; details: Ipomoea hederacea, 312 h
Outline: as §2

[13] = post-emergence, 1,000 g/ha, evaluated after 13 days (100=total damage; 0=no damage), read-out: Percentage damage caused to weed species, ECHCG
[14] = post-emergence, 1,000 g/ha, evaluated after 13 days (100=total damage; 0=no damage), read-out: Percentage damage caused to weed species, ALOMY
[15] = post-emergence, 1,000 g/ha, evaluated after 13 days (100=total damage; 0=no damage), read-out: Percentage damage caused to weed species, AMARE
[16] = post-emergence, 1,000 g/ha, evaluated after 13 days (100=total damage; 0=no damage), read-out: Percentage damage caused to weed species, SETFA
[17] = post-emergence, 1,000 g/ha, evaluated after 13 days (100=total damage; 0=no damage), read-out: Percentage damage caused to weed species, SOLNI
[18] = post-emergence, 1,000 g/ha, evaluated after 13 days (100=total damage; 0=no damage), read-out: Percentage damage caused to weed species, IPOHE
[19] = pre-emergence, 1,000 g/ha, evaluated after 13 days (100=total damage; 0=no damage), read-out: Percentage damage ECHCG
[20] = pre-emergence, 1,000 g/ha, evaluated after 13 days (100=total damage; 0=no damage), read-out: Percentage damage ALOMY
[21] = pre-emergence, 1,000 g/ha, evaluated after 13 days (100=total damage; 0=no damage), read-out: Percentage damage AMARE
[22] = pre-emergence, 1,000 g/ha, evaluated after 13 days (100=total damage; 0=no damage), read-out: Percentage damage SETFA
[23] = pre-emergence, 1,000 g/ha, evaluated after 13 days (100=total damage; 0=no damage), read-out: Percentage damage SOLNI
[24] = pre-emergence, 1,000 g/ha, evaluated after 13 days (100=total damage; 0=no damage), read-out: Percentage damage IPOHE
[25] = Rate 1,000 g/ha, post-emergence spray, evaluated after 13 days (100=total damage to plant; 0=no damage to plant), read-out: Percentage damage caused to weed species, post-emergence, ECHCG
[26] = Rate 1,000 g/ha, post-emergence spray, evaluated after 13 days (100=total damage to plant; 0=no damage to plant), read-out: Percentage damage caused to weed species, post-emergence, ALOMY
[27] = Rate 1,000 g/ha, post-emergence spray, evaluated after 13 days (100=total damage to plant; 0=no damage to plant), read-out: Percentage damage caused to weed species, post-emergence, AMARE
[28] = Rate 1,000 g/ha, post-emergence spray, evaluated after 13 days (100=total damage to plant; 0=no damage to plant), read-out: Percentage damage caused to weed species, post-emergence, SETFA
[29] = Rate 1,000 g/ha, post-emergence spray, evaluated after 13 days (100=total damage to plant; 0=no damage to plant), read-out: Percentage damage caused to weed species, post-emergence, SOLNI
[30] = Rate 1,000 g/ha, post-emergence spray, evaluated after 13 days (100=total damage to plant; 0=no damage to plant), read-out: Percentage damage caused to weed species, post-emergence, IPOHE
[31] = pre-emergence, rate 1,000 g/ha, evaluated after 13 days (100=total damage to plant; 0=no damage), read-out: Percentage damage caused to weed species, ECHCG
[32] = pre-emergence, rate 1,000 g/ha, evaluated after 13 days (100=total damage to plant; 0=no damage), read-out: Percentage damage caused to weed species, ALOMY
[33] = pre-emergence, rate 1,000 g/ha, evaluated after 13 days (100=total damage to plant; 0=no damage), read-out: Percentage damage caused to weed species, AMARE
[34] = pre-emergence, rate 1,000 g/ha, evaluated after 13 days (100=total damage to plant; 0=no damage), read-out: Percentage damage caused to weed species, SETFA
[35] = pre-emergence, rate 1,000 g/ha, evaluated after 13 days (100=total damage to plant; 0=no damage), read-out: Percentage damage caused to weed species, SOLNI
[36] = pre-emergence, rate 1,000 g/ha, evaluated after 13 days (100=total damage to plant; 0=no damage), read-out: Percentage damage caused to weed species, IPOHE

Row | Compound | pest or weed control at 1000 g/ha [1, 13] [%] | pest or weed control at 1000 g/ha [2, 14] [%] | pest or weed control at 1000 g/ha [3, 15] [%] | pest or weed control at 1000 g/ha [4, 16] [%] | pest or weed control at 1000 g/ha [5, 17] [%] | pest or weed control at 1000 g/ha [6, 18] [%] | pest or weed control at 1000 g/ha [7, 19] [%] | pest or weed control at 1000 g/ha [8, 20] [%] | pest or weed control at 1000 g/ha [9, 21] [%] | pest or weed control at 1000 g/ha [10, 22] [%] | pest or weed control at 1000 g/ha [11, 23] [%] | pest or weed control at 1000 g/ha [12, 24] [%] | pest or weed control at 1000 g/ha [1, 25] [%] | pest or weed control at 1000 g/ha [2, 26] [%] | pest or weed control at 1000 g/ha [3, 27] [%] | pest or weed control at 1000 g/ha [4, 28] [%] | pest or weed control at 1000 g/ha [5, 29] [%] | pest or weed control at 1000 g/ha [6, 30] [%] | pest or weed control at 1000 g/ha [7, 31] [%] | pest or weed control at 1000 g/ha [8, 32] [%] | further results
1 | COC(=O)c1nc(C2CC2)nc(NCC(O)COc2ccc(Cl)cc2)c1Cl (stereo not drawn) [Compound 4-264, 5-Chloro-4-[3-(4-chlorophenoxy)-2-hydroxy-propylamino]-2-cyclopropyl-6-methoxycarbonyl-pyrimidine] | 50 | 30 | 100 | 70 | 100 | 60 | 60 | 40 | 80 | 80 | 90 | 90 | – | – | – | – | – | – | – | – | –
2 | COC(=O)c1nc(C2CC2)nc(NCc2cccc([N+](=O)[O-])c2)c1Cl [Compound 4-91, 5-Chloro-2-cyclopropyl-6-methoxycarbonyl-4-(3-nitrophenyl-methylamino)-pyrimidine] | 80 | 50 | 100 | 90 | 100 | 100 | 20 | 10 | 50 | 20 | 50 | 60 | – | – | – | – | – | – | – | – | –
3 | COC(=O)c1nc(-c2ccc(Cl)cc2)nc(NCc2ccccc2)c1Cl [Compound 40-60, 5-Chloro-2-(4-chlorophenyl)-6-methoxycarbonyl-4-(phenylmethylamino) pyrimidine] | – | – | – | – | – | – | – | – | – | – | – | – | 0 | 0 | 60 | 0 | 70 | 100 | 50 | 20 | pest or weed control at 1000 g/ha [9, 33]: 90%; pest or weed control at 1000 g/ha [10, 34]: 0%; pest or weed control at 1000 g/ha [11, 35]: 30%; pest or weed control at 1000 g/ha [12, 36]: 0%
4 | COC(=O)c1nc(C2CC2)nc(NC(C)CCc2ccccc2)c1Cl (stereo not drawn) [Compound 4-252, 5-Chloro-2-cyclopropyl-6-methoxycarbonyl-4-(3-phenyl-1-methyl-propylamino)-pyrimidine] | 0 | 10 | 100 | 30 | 60 | 60 | 0 | 0 | 20 | 0 | 0 | 0 | – | – | – | – | – | – | – | – | –
5 | COC(=O)c1nc(C2CC2)nc(NC2CCCC2O)c1Cl (stereo not drawn) [Compound 4-34, 5-Chloro-2-cyclopropyl-4-(2-hydroxycyclopentylamino)-6-methoxycarbonyl-pyrimidine] | 60 | 20 | 100 | 60 | 80 | 60 | 20 | 30 | 100 | 50 | 80 | 90 | – | – | – | – | – | – | – | – | –
6 | COC(=O)c1nc(C2CC2)nc(N[C@H](CO)c2ccccc2)c1Cl [4-203 (S), 5-Chloro-2-cyclopropyl-4-[(1S)-2-hydroxy-1-phenyl-ethylamino]-6-methoxycarbonyl-pyrimidine] | 30 | 30 | 100 | 50 | 80 | 70 | 20 | 20 | 70 | 40 | 80 | 80 | – | – | – | – | – | – | – | – | –
7 | COC(=O)c1nc(C2CC2)nc(N(C)Cc2ccncc2)c1Cl [Compound 5-160, 5-Chloro-2-cyclopropyl-6-methoxycarbonyl-4-(N-methyl-N-pyridin-4-ylmethyl-amino)pyrimidine] | – | – | – | – | – | – | – | – | – | – | – | – | 0 | 20 | 100 | 60 | 80 | 100 | 20 | 0 | pest or weed control at 1000 g/ha [9, 33]: 80%; pest or weed control at 1000 g/ha [10, 34]: 0%; pest or weed control at 1000 g/ha [11, 35]: 40%; pest or weed control at 1000 g/ha [12, 36]: 70%
8 | C=CCN(Cc1cc(Cl)ccc1OC)c1nc(C2CC2)nc(C(=O)OC)c1Cl [Compound 151-117, 5-Chloro-4-[N-(5-chloro-2-methoxyphenylmeth-yl)-N-prop-2-en-1-yl-amino]-2-cyclopropyl-6-methoxycarbonyl-pyrimidine] | – | – | – | – | – | – | – | – | – | – | – | – | 0 | 0 | 30 | 20 | 30 | 60 | 0 | 10 | pest or weed control at 1000 g/ha [9, 33]: 40%; pest or weed control at 1000 g/ha [10, 34]: 10%; pest or weed control at 1000 g/ha [11, 35]: 30%; pest or weed control at 1000 g/ha [12, 36]: 30%
9 | COC(=O)c1nc(C2CC2)nc(NC(C)Cc2c[nH]c3ccccc23)c1Cl (stereo not drawn) [Compound 4-231, 5-Chloro-2-cyclopropyl-4-[2-(indol-3-yl)-1-methyl-ethylamino]-6-methoxy-carbonylpyrimidine] | 10 | 10 | 90 | 30 | 70 | 60 | 0 | 0 | 30 | 0 | 10 | 70 | – | – | – | – | – | – | – | – | –
